Key:
[1] = target: His-tagged KRAS G12D protein (Homo sapiens, UniProt P01116, G12D); experiment: KRAS G12D TR-FRET assay (binding); conditions: biotinylated KRPep-2d substrate, GDP in assay buffer
Procedure: The plate was incubated for 30 minutes at room temperature. Biotinylated KRPep-2d substrate (Amgen) was diluted to 20 nM in Assay Buffer and 2 L was added to all wells and incubated for 1 hour at room temperature. Detection Reagent (0.4 nM LANCE Eu-W1024 Anti-6xHis (Perkin Elmer AD0401), 5 nM streptavidin-d^2 (Cisbio 610SADLA)) was prepared in Assay Buffer, then 4 μL was added to the plate and incubated for 1 hour at room temperature.

[2] = tested on: Phosphorylation of ERK1/2 in AsPC-1 cells; experiment: Phospho-ERK1/2 MSD assay; type: cell-based; conditions: Homo sapiens, ASPC1, read-out: 2 h p-ERK (AsPC-1 cells), IC50 (μM), 2 hours compound treatment
Procedure: Sixteen hours prior to compound treatment, AsPC-1 cells were seeded in 96-well cell culture plates at a density of 25,000 cells/well and incubated at 37° C., 5% CO2. A compound dose-response titration was diluted in growth media, added to appropriate wells of a cell culture plate, and then incubated at 37° C., 5% CO2 for 2 hours.

His-tagged KRAS G12D protein, sequence (P01116 1-188 isoform P01116-2 G12D): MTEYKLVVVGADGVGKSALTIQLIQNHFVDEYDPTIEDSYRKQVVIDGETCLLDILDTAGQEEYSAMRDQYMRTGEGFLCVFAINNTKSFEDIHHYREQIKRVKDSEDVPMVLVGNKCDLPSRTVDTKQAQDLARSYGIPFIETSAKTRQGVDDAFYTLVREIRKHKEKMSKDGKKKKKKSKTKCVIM

Compound	IC50 [1] [nM]	IC50 [2] [µM]
CCc1cccc2cc(O)cc(-c3ncc4c(N5CC6COC(C6)C5)nc(OC[C@@]56CCCN5C[C@H](F)C6)nc4c3F)c12 (stereo partly drawn) [Example 10, 4-(4-(6-Oxa-3-azabicyclo[3.2.1]octan-3-yl)-8-fluoro-2-(((2R,7aS)-2-fluorotetrahydro-1H-pyrrolizin-7a(5H)-yl)methoxy)pyrido [4,3-d]pyrimidin-7-yl)-5-ethylnaphthalen-2-ol]	8	0.277
C#Cc1cccc2cc(O)cc(-c3ncc4c(N5CCCOCC5)nc(OC[C@@H]5C[C@@H](F)CN5C)nc4c3F)c12 [Example 12, 5-Ethynyl-4-(8-fluoro-2-(((2S,4R)-4-fluoro-1-methylpyrrolidin-2-yl)methoxy)-4-(1,4-oxazepan-4-yl)pyrido[4,3-d]pyrimidin-7-yl)naphthalen-2-ol]	4	0.131
Oc1cc(-c2ncc3c(N4CCCOCC4)nc(OCC45CCCN4CCC5)nc3c2F)c2ccccc2c1 [Example 13, 4-(8-Fluoro-4-(1,4-oxazepan-4-yl)-2-((tetrahydro-1H-pyrrolizin-7a(5H)-yl)methoxy)pyrido [4,3-d]pyrimidin-7-yl)naphthalen-2-ol]	11	4.18
Cc1c(Cl)cc2[nH]ncc2c1-c1ncc2c(N3CCCOCC3)nc(OC[C@@]34CCCN3C[C@H](F)C4)nc2c1F [Example 15, 4-(7-(6-Chloro-5-methyl-1H-indazol-4-yl)-8-fluoro-2-(((2R,7aS)-2-fluorotetrahydro-1H-pyrrolizin-7a(5H)-yl)methoxy)pyrido [4,3-d]pyrimidin-4-yl)-1,4-oxazepane]	36	4.51
CN1C[C@H](F)C[C@H]1COc1nc(N2CCCOCC2)c2cnc(-c3cc(O)cc4ccccc34)c(F)c2n1 [Example 16, 4-(8-Fluoro-2-(((2S,4R)-4-fluoro-1-methylpyrrolidin-2-yl)methoxy)-4-(1,4-oxazepan-4-yl)pyrido[4,3-d]pyrimidin-7-yl)naphthalen-2-ol]	73	4.83
CCc1c(F)ccc2cc(O)cc(-c3ncc4c(N5CCCOCC5)nc(OCC5(CN6CCOCC6)CC5)nc4c3F)c12 [Example 17, 5-Ethyl-6-fluoro-4-(8-fluoro-2-((1-(morpholinomethyl)cyclopropyl)methoxy)-4-(1,4-oxazepan-4-yl)pyrido[4,3-d]pyrimidin-7-yl)naphthalen-2-ol]	3	0.189
Oc1cc(Cl)c(C2CC2)c(-c2ncc3c(N4CCCOCC4)nc(OC[C@@]45CCCN4C[C@H](F)C5)nc3c2F)c1 [Example 18, 3-Chloro-4-cyclopropyl-5-(8-fluoro-2-(((2R,7aS)-2-fluorotetrahydro-1H-pyrrolizin-7a(5H)-yl)methoxy)-4-(1,4-oxazepan-4-yl)pyrido[4,3-d]pyrimidin-7-yl)phenol]	2	0.162
Oc1cc(-c2ncc3c(N4C[C@H]5COC[C@@H](C4)O5)nc(OC[C@@]45CCCN4C[C@H](F)C5)nc3c2F)c2c(F)c(F)ccc2c1 [Example 19, 4-(4-((1R,5S)-3,9-Dioxa-7-azabicyclo[3.3.1]nonan-7-yl)-8-fluoro-2-(((2R,7aS)-2-fluorotetrahydro-1H-pyrrolizin-7a(5H)-yl)methoxy)pyrido [4,3-d]pyrimidin-7-yl)-5,6-difluoronaphthalen-2-ol]	9	1.1
CCc1cccc2cc(O)cc(-c3ncc4c(N5CCCOCC5)nc(OCC5(CN6CCOCC6)CC5)nc4c3F)c12 [Example 20, 5-Ethyl-4-(8-fluoro-2-((1-(morpholinomethyl)cyclopropyl)methoxy)-4-(1,4-oxazepan-4-yl)pyrido[4,3-d]pyrimidin-7-yl)naphthalen-2-ol]	5	0.336
CCc1c(F)ccc2cc(O)cc(-c3ncc4c(N5C[C@H]6COC[C@@H](C5)O6)nc(OC[C@@]56CCCN5C[C@H](F)C6)nc4c3F)c12 [Example 21, 4-(4-((1R,5S)-3,9-Dioxa-7-azabicyclo[3.3.1]nonan-7-yl)-8-fluoro-2-(((2R,7aS)-2-fluorotetrahydro-1H-pyrrolizin-7a(5H)-yl)methoxy)pyrido [4,3-d]pyrimidin-7-yl)-5-ethyl-6-fluoronaphthalen-2-ol]	11	0.621
Oc1cc(Cl)c(C2CC2)c(-c2ncc3c(N4CCCOCC4)nc(OCC4(CN5CCOCC5)CC4)nc3c2F)c1 [Example 22, 3-Chloro-4-cyclopropyl-5-(8-fluoro-2-((1-(morpholinomethyl)cyclopropyl)methoxy)-4-(1,4-oxazepan-4-yl)pyrido[4,3-d]pyrimidin-7-yl)phenol]	11	1.29
CCc1cccc2cc(O)cc(-c3ncc4c(N5C[C@H]6COC[C@@H](C5)O6)nc(OC[C@@]56CCCN5C[C@H](F)C6)nc4c3F)c12 [Example 23, 4-(4-((1R,5S)-3,9-Dioxa-7-azabicyclo[3.3.1]nonan-7-yl)-8-fluoro-2-(((2R,7aS)-2-fluorotetrahydro-1H-pyrrolizin-7a(5H)-yl)methoxy)pyrido [4,3-d]pyrimidin-7-yl)-5-ethylnaphthalen-2-ol]	29	1.15
CCc1c(F)ccc2cc(O)cc(-c3ncc4c(N5CCOCC5)nc(OC[C@@]56CCCN5C[C@H](F)C6)nc4c3F)c12 [Example 24, 5-Ethyl-6-fluoro-4-(8-fluoro-2-(((2R,7aS)-2-fluorotetrahydro-1H-pyrrolizin-7a(5H)-yl)methoxy)-4-morpholinopyrido [4,3-d]pyrimidin-7-yl)naphthalen-2-ol]	11	0.586
CCc1c(F)ccc2cc(O)cc(-c3ncc4c(N5C[C@H]6C[C@@H](C5)O6)nc(OC[C@@]56CCCN5C[C@H](F)C6)nc4c3F)c12 [Example 27, 4-(4-((1R,5S)-6-Oxa-3-azabicyclo[3.1.1]heptan-3-yl)-8-fluoro-2-(((2R,7aS)-2-fluorotetrahydro-1H-pyrrolizin-7a(5H)-yl)methoxy)pyrido [4,3-d]pyrimidin-7-yl)-5-ethyl-6-fluoronaphthalen-2-ol]	62	2.28
CCc1c(F)ccc2cc(O)cc(-c3ncc4c(N5C[C@@H]6CC[C@@H]5CO6)nc(OC[C@@]56CCCN5C[C@H](F)C6)nc4c3F)c12 [Example 28, 4-(4-((1S,4R)-2-Oxa-5-azabicyclo[2.2.2]octan-5-yl)-8-fluoro-2-(((2R,7aS)-2-fluorotetrahydro-1H-pyrrolizin-7a(5H)-yl)methoxy)pyrido [4,3-d]pyrimidin-7-yl)-5-ethyl-6-fluoronaphthalen-2-ol]	79	1.77
CCc1cccc2cc(O)cc(-c3ncc4c(N5CCCOCC5)nc(OC[C@@H]5C[C@@H](F)CN5C)nc4c3F)c12 [Example 32, 5-Ethyl-4-(8-fluoro-2-(((2S,4R)-4-fluoro-1-methylpyrrolidin-2-yl)methoxy)-4-(1,4-oxazepan-4-yl)pyrido[4,3-d]pyrimidin-7-yl)naphthalen-2-ol]	13	0.966
CCc1c(F)ccc2cc(O)cc(-c3ncc4c(N5CC[S+]([O-])CC5)nc(OC[C@@]56CCCN5C[C@H](F)C6)nc4c3F)c12 [Example 34, 4-(7-(8-Ethyl-7-fluoro-3-hydroxynaphthalen-1-yl)-8-fluoro-2-(((2R,7aS)-2-fluorotetrahydro-1H-pyrrolizin-7a(5H)-yl)methoxy)pyrido[4,3-d]pyrimidin-4-yl)thiomorpholine 1-oxide]	1	0.393
CCc1c(F)ccc2cc(O)cc(-c3ncc4c(N5CCS(=N)(=O)CC5)nc(OC[C@@]56CCCN5C[C@H](F)C6)nc4c3F)c12 [Example 35, 4-(7-(8-Ethyl-7-fluoro-3-hydroxynaphthalen-1-yl)-8-fluoro-2-(((2R,7aS)-2-fluorotetrahydro-1H-pyrrolizin-7a(5H)-yl)methoxy)pyrido[4,3-d]pyrimidin-4-yl)-1-imino-1 λ^6-thiomorpholine 1-oxide]	57	> 10
CCc1c(F)ccc2cc(O)cc(-c3ncc4c(N5CCC[S+]([O-])CC5)nc(OC[C@@]56CCCN5C[C@H](F)C6)nc4c3F)c12 (stereo partly drawn) [Example 36, 4-(7-(8-Ethyl-7-fluoro-3-hydroxynaphthalen-1-yl)-8-fluoro-2-(((2R,7aS)-2-fluorotetrahydro-1H-pyrrolizin-7a(5H)-yl)methoxy)pyrido[4,3-d]pyrimidin-4-yl)-1,4-thiazepane 1-oxide]	1	0.651
CCc1c(F)ccc2cc(O)cc(-c3ncc4c(N5CCCS(=O)(=O)CC5)nc(OC[C@@]56CCCN5C[C@H](F)C6)nc4c3F)c12 [Example 37, 4-(7-(8-Ethyl-7-fluoro-3-hydroxynaphthalen-1-yl)-8-fluoro-2-(((2R,7aS)-2-fluorotetrahydro-1H-pyrrolizin-7a(5H)-yl)methoxy)pyrido[4,3-d]pyrimidin-4-yl)-1,4-thiazepane 1,1-dioxide]	11	2.66
CCc1c(F)ccc2cc(O)cc(-c3ncc4c(N5CCCS(=N)(=O)CC5)nc(OC[C@@]56CCCN5C[C@H](F)C6)nc4c3F)c12 (stereo partly drawn) [Example 38, 4-(7-(8-Ethyl-7-fluoro-3-hydroxynaphthalen-1-yl)-8-fluoro-2-(((2R,7aS)-2-fluorotetrahydro-1H-pyrrolizin-7a(5H)-yl)methoxy)pyrido[4,3-d]pyrimidin-4-yl)-1-imino-1 λ^6,4-thiazepane 1-oxide]	21	> 10
CCc1c(F)ccc2cc(O)cc(-c3ncc4c(N5CCOC[C@@H](OC)C5)nc(OC[C@@]56CCCN5C[C@H](F)C6)nc4c3F)c12 [Example 39, 5-Ethyl-6-fluoro-4-(8-fluoro-2-(((2R,7aS)-2-fluorotetrahydro-1H-pyrrolizin-7a(5H)-yl)methoxy)-4-((S)-6-methoxy-1,4-oxazepan-4-yl)pyrido[4,3-d]pyrimidin-7-yl)naphthalen-2-ol]	5	0.171

Reference: patent US20250122222A1, “HETEROCYCLIC COMPOUNDS AND METHODS OF USE” (AMGEN INC., priority 2021, published 2025)
